Source: patent US20250032625A1, “HETEROBIFUNCTIONAL MOLECULES AS TEAD INHIBITORS” (Merck Patent GmbH, priority 2021, published 2025)
Read-outs that look alike come from different tables or passages of the source.

Experiments:
TEAD1 in SK-HEP1 cells = TEAD1 in SK-HEP1 cells (Homo sapiens (Human), UniProt P28347); test: TEAD degradation in SK-HEP1 cell line (immunofluorescence); format: cell-based
Experimental: (§1) Degradation of TEAD isoform TEAD1 by exemplary compounds which has been determined at different time points in two different cell lines, SK-HEP1 and NCI-H226: For the assay, SK-HEP1 (ATCC HTB-52) and NCI-H226 (ATCC CRL-5826) cells were treated in duplicates with the test compounds in a 10-point dose, 1:3 dilution steps, with the top concentration starting at 30 uM (final concentration in assay). After either 16 or 24 hour incubation at 37° C., 95% rH, and 5% CO2, the cells were fixed with 4% PFA and TEAD1 levels were probed using immunofluorescence. The primary antibody used was Anti-TEF1 (BD, 610293) and the secondary antibody used was Alexa Fluor® 488 Goat Anti-Mouse IgG (H+L) (Molecular Probes, A-11001). Finally, the cell nuclei were co-stained by Hoechst 33258 (Invitrogen, H-3569) and imaged using a high content imager. The amount of TEAD degradation was determined by quantifying the fluorescence intensity levels of Anti-TEF1 in each individual cell per well. DC50 was calculated using curve fitting software Genedata Screener. Cell media: The SK-HEP1 cells were cultured in the following media: MEM, +10% FCS, +1× GlutaMAX, +100 μM NEAA, +10 mM HEPES, +0.5% Pen/Strep. The NCI-H226 cells were cultured in the following media: RPMI 1640, +10% FBS, +1× GlutaMAX, +10 mM HEPES, +0.5% Pen/Strep.

TEAD1 in NCI-H226 cells = TEAD1 in NCI-H226 cells (Homo sapiens (Human), UniProt P28347); test: TEAD degradation in NCI-H226 cell line (immunofluorescence); format: cell-based
Experimental: as §1

[1] = 24 hours, ranges, read-out: DC50 SK-HEP1
[2] = 24 hours, ranges, read-out: DC50 NCI-H226
[3] = 24 h incubation, read-out: DC50 SK-HEP1 24 h
[4] = 24 h incubation, read-out: DC50 NCI-H226 24 h
[5] = 16 h incubation, read-out: DC50 SK-HEP1 16 h
[6] = 16 h incubation, read-out: DC50 NCI-H226 16 h

Sequence of TEAD1 in SK-HEP1 cells (P28347 whole entry, canonical isoform): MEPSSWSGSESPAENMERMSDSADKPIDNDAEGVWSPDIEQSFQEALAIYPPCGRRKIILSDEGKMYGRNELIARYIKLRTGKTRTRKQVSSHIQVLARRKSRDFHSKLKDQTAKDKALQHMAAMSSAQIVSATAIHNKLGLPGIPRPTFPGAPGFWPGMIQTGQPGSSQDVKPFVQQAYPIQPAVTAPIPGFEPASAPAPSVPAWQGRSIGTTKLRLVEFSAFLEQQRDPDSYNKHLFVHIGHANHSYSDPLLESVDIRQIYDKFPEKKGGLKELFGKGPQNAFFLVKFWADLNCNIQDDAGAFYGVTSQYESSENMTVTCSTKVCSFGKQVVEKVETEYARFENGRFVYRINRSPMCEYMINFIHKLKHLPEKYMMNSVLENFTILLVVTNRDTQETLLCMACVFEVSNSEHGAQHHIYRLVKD
Sequence of TEAD1 in NCI-H226 cells (P28347 whole entry): as the sequence (P28347 whole entry, canonical isoform) above

| SMILES | DC50 (TEAD1 in SK-HEP1 cells; [1]) | DC50 (TEAD1 in NCI-H226 cells; [2]) | DC50 (TEAD1 in SK-HEP1 cells; [3]) | DC50 (TEAD1 in NCI-H226 cells; [4]) | DC50 (TEAD1 in SK-HEP1 cells; [5]) | DC50 (TEAD1 in NCI-H226 cells; [6]) |
| --- | --- | --- | --- | --- | --- | --- |
| Cc1ncsc1-c1ccc(CNC(=O)C2CC(O)CN2C(=O)C(NC(=O)COCCOCCOCCOCCNC(=O)c2ccc3c(c2)c2cn(C)nc2n3-c2ccc(C(F)(F)F)cc2)C(C)(C)C)cc1 (stereo in doubt) [Compound 12, (2S,4R)-1-{(2S)-3,3-dimethyl-2-[14-({2-methyl-8-[4-(trifluoromethyl)phenyl]-2H,8H-pyrazolo[3,4-b]indol-5-yl}formamido)-3,6,9,12-tetraoxatetradecanamido]butanoyl}-4-hydroxy-N-{[4-(4-methyl-1,3-thiazol-5-yl)phenyl]methyl}pyrrolidine-2-carboxamide] | 100 to 1000 nM | 3000 to 9000 nM |  |  |  |  |
| CCNC(=O)[C@H](Cc1ccc(F)cc1)NC(=O)[C@@H]1CCCN1C(=O)[C@@H](NC(=O)[C@H](C)NCCOCCOCCOCCNC(=O)c1ccc2c(c1)c1cn(C)nc1n2-c1ccc(C(F)(F)F)cc1)C1CCCCC1 (stereo in doubt) [Compound 69, (13S)—N-[(1S)-1-cyclohexyl-2-[(2S)-2-{[(1S)-1-(ethylcarbamoyl)-2-(4-fluorophenyl)ethyl]carbamoyl}pyrrolidin-1-yl]-2-oxoethyl]-13-methyl-1-({2-methyl-8-[4-(trifluoromethyl)phenyl]-2H,8H-pyrazolo[3,4-b]indol-5-yl}form-amido)-3,6,9-trioxa-12-azatetradecan-14-amide] | 3000 to 9000 nM | 9000 to 30000 nM |  |  |  |  |
| Cn1cc2c3cc(C(=O)NCCOCCOCCNC(=O)COc4ccc5c(c4)C(=O)N(C4CCC(=O)NC4=O)C5=O)ccc3n(-c3ccc(C(F)(F)F)cc3)c2n1 (stereo not drawn) [Compound 7, 2-{[2-(2,6-dioxopiperidin-3-yl)-1,3-dioxo-2,3-dihydro-1H-isoindol-5-yl]oxy}-N-(2-{2-[2-({2-methyl-8-[4-(trifluoromethyl)phenyl]-2H,8H-pyrazolo[3,4-b]indol-5-yl}formamido)ethoxy]ethoxy}ethyl)acetamide] | 1000 to 3000 nM | 9000 to 30000 nM | 2400 nM | 20000 nM |  |  |
| Cn1cc2c3cc(C(=O)NCCOCCOCCOCCOCCOCC(=O)Nc4cccc5c4C(=O)N(C4CCC(=O)NC4=O)C5=O)ccc3n(-c3ccc(C(F)(F)F)cc3)c2n1 (stereo not drawn) [Compound 10, N-[2-(2,6-dioxopiperidin-3-yl)-1,3-dioxo-2,3-dihydro-1H-isoindol-4-yl]-17-({2-methyl-8-[4-(trifluoromethyl)phenyl]-2H,8H-pyrazolo[3,4-b]indol-5-yl}formamido)-3,6,9,12,15-pentaoxaheptadecanamide] |  | 1000 to 3000 nM |  | 20000 nM |  |  |
| Cn1cc2c3cc(C(=O)NCCOCCOCCNC(=O)CCCCCCNc4cccc5c4CN(C4CCC(=O)NC4=O)C5=O)ccc3n(-c3ccc(C(F)(F)F)cc3)c2n1 (stereo not drawn) [Compound 15, 7-{[2-(2,6-dioxopiperidin-3-yl)-1-oxo-2,3-dihydro-1H-isoindol-4-yl]amino}-N-(2-{2-[2-({2-methyl-8-[4-(trifluoromethyl)phenyl]-2H,8H-pyrazolo[3,4-b]indol-5-yl}formamido)ethoxy]ethoxy}ethyl) heptanamide] |  | 1000 to 3000 nM |  |  |  |  |
| Cn1cc2c3cc(C(=O)NCCOCCOCCOCCOCCOc4cccc5c4C(=O)N(C4CCC(=O)NC4=O)C5=O)ccc3n(-c3ccc(C(F)(F)F)cc3)c2n1 (stereo not drawn) [Compound 16, N-(14-{[2-(2,6-dioxopiperidin-3-yl)-1,3-dioxo-2,3-dihydro-1H-isoindol-4-yl]oxy}-3,6,9,12-tetraoxatetradecan-1-yl)-2-methyl-8-[4-(trifluoromethyl)phenyl]-2H,8H-pyrazolo[3,4-b]indole-5-carboxamide] | 100 to 1000 nM | 100 to 1000 nM | 250 nM | 600 nM |  |  |
| Cn1cc2c3cc(C(=O)NCC#Cc4ccc(N5CCN(CCCC(=O)Nc6ccc7c(c6)CN(C6CCC(=O)NC6=O)C7=O)CC5)nc4)ccc3n(-c3ccc(C(F)(F)F)cc3)c2n1 (stereo not drawn) [Compound 19, N-(3-{6-[4-(3-{[2-(2,6-dioxopiperidin-3-yl)-1-oxo-2,3-dihydro-1H-isoindol-5-yl]carbamoyl}propyl)piperazin-1-yl]pyridin-3-yl}prop-2-yn-1-yl)-2-methyl-8-[4-(trifluoromethyl)phenyl]-2H,8H-pyrazolo[3,4-b]indole-5-carboxamide] | < 100 nM | < 100 nM | 40 nM | 70 nM |  |  |

Now from value to compound:

| DC50 (TEAD1 in SK-HEP1 cells; [1]) | DC50 (TEAD1 in NCI-H226 cells; [2]) | DC50 (TEAD1 in SK-HEP1 cells; [3]) | DC50 (TEAD1 in NCI-H226 cells; [4]) | DC50 (TEAD1 in SK-HEP1 cells; [5]) | DC50 (TEAD1 in NCI-H226 cells; [6]) | SMILES |
| --- | --- | --- | --- | --- | --- | --- |
| 100 to 1000 nM | 100 to 1000 nM | 190 nM | 300 nM |  |  | Cc1ncsc1-c1ccc(CNC(=O)[C@@H]2C[C@@H](O)CN2C(=O)[C@@H](NC(=O)CCCCCCCCCNC(=O)c2ccc3c(c2)c2cn(C)nc2n3-c2ccc(C(F)(F)F)cc2)C(C)(C)C)cc1 [Compound 20, (2S,4R)-1-[(2S)-3,3-dimethyl-2-[10-({2-methyl-8-[4-(trifluoromethyl)phenyl]-2H,8H-pyrazolo[3,4-b]indol-5-yl}formamido)decanamido]butanoyl]-4-hydroxy-N-{[4-(4-methyl-1,3-thiazol-5-yl)phenyl]methyl}pyrrolidine-2-carboxamide] |
| 100 to 1000 nM | 100 to 1000 nM | 700 nM | 1000 nM | 700 nM | 1000 nM | Cc1ncsc1-c1ccc([C@H](C)NC(=O)[C@@H]2C[C@@H](O)CN2C(=O)[C@@H](NC(=O)CCCCCC(=O)NCCOCCOCCNC(=O)c2ccc3c(c2)c2cn(C)nc2n3-c2ccc(C(F)(F)F)cc2)C(C)(C)C)cc1 [Compound 24, N′-[(2S)-1-[(2S,4R)-4-hydroxy-2-{[(1S)-1-[4-(4-methyl-1,3-thiazol-5-yl)phenyl]ethyl]carbamoyl}pyrrolidin-1-yl]-3,3-dimethyl-1-oxobutan-2-yl]-N-(2-{2-[2-({2-methyl-8-[4-(trifluoromethyl)phenyl]-2H,8H-pyrazolo[3,4-b]indol-5-yl}formamido)ethoxy]ethoxy}ethyl) heptanediamide] |
| 100 to 1000 nM | 1000 to 3000 nM | 1000 nM | 1000 nM | 1000 nM | 1000 nM | CC(=O)O[C@@H]1C[C@@H](C(=O)N[C@@H](C)c2ccc(-c3scnc3C)cc2)N(C(=O)[C@@H](NC(=O)CCCCCC(=O)NCCOCCOCCNC(=O)c2ccc3c(c2)c2cn(C)nc2n3-c2ccc(C(F)(F)F)cc2)C(C)(C)C)C1 [Compound 25, (3R,5S)-1-[(2S)-3,3-dimethyl-2-{6-[(2-{2-[2-({2-methyl-8-[4-(trifluoromethyl)phenyl]-2H,8H-pyrazolo[3,4-b]indol-5-yl}formamido)ethoxy]ethoxy}ethyl)carbamoyl]hexanamido}butanoyl]-5-{[(1S)-1-[4-(4-methyl-1,3-thiazol-5-yl)phenyl]ethyl]carbamoyl}pyrrolidin-3-yl acetate] |
| 100 to 1000 nM |  |  |  |  |  | Cc1ncsc1-c1ccc(CNC(=O)[C@@H]2C[C@@H](O)CN2C(=O)[C@@H](NC(=O)CCCCCCOCCNC(=O)c2ccc3c(c2)c2cn(C)nc2n3-c2ccc(C(F)(F)F)cc2)C(C)(C)C)cc1 [Compound 77, (2S,4R)-1-[(2S)-3,3-dimethyl-2-{7-[2-({2-methyl-8-[4-(trifluoromethyl)-phenyl]-2H,8H-pyrazolo[3,4-b]indol-5-yl}formamido)ethoxy]heptanamido}-butanoyl]-4-hydroxy-N-{[4-(4-methyl-1,3-thiazol-5-yl)phenyl]methyl}-pyrrolidine-2-carboxamide] |
